According to PubChem BioAssay AID1996:
Values after ≈ are worked out from the molar mass of the structure shown. Non-standard residues stand in square brackets, D forms with d. Residues, ends and D or L forms follow the SMILES beside them. *: point of attachment. Tic = O=C(O)[C@@H]1Cc2ccccc2CN1; Boc = CC(C)(C)OC(=O)*

Conditions: buffer; pH 7.4; 200.0 µM

Compound | solubility kinetic [µg/mL]
CCC(C)[C@H](NC(=O)N1CCC(Cc2ccccc2)CC1)C(=O)O (some centres not stated) | > 49.9
O=C(Nc1cccc([N+](=O)[O-])c1)C1C2CC/C=C\CCC21 (configuration not stated) | 0.8 (≈ 2.79 µM)
Cl.NCCSC1CC(=O)N(c2ccc(Cl)c(Cl)c2)C1=O (configuration not stated) | 32.8
CSc1cccc(NS(=O)(=O)c2ccc(C(C)=O)cc2)c1 | 41.1 (≈ 128 µM)
CCOC(=O)c1ccc(NC(=O)C2C3CCCCC32)cc1 (configuration not stated) | < 0.6
CC(C)(C)OC(=O)N1Cc2ccccc2C[C@H]1C(=O)N1CCC[C@H]1C(=O)O (Boc-[Tic]-Pro-OH) | 49.9 (≈ 133 µM)
Cc1nn(CC(=O)NCCC2=CCCCC2)c(C)c1S(=O)(=O)N(C)C | > 55.3
COc1ccc(/C=C(\C#N)C(=O)ONC2=NCCCCC2)cc1 | 42.8 (≈ 137 µM)
COC(=O)c1cc(NC(=O)c2cccnc2)cc(C(=O)OC)c1 | 5.6 (≈ 17.8 µM)
C=CCNC(=O)COc1c(C)ccc(C)c1C | > 35
CCOC(=O)C1CCN(c2ccc([N+](=O)[O-])c(C(C)=O)c2)CC1 | > 48.1
COc1ccc(NC(=O)COC(=O)C2C3CC4OC(=O)C2C4C3)cc1 (configuration not stated) | > 51.8
CC(C(=O)N1CCCC1)N(c1ccccc1)S(C)(=O)=O (configuration not stated) | > 44.5
O=C(Cn1ccnc1)c1ccc(Cl)cc1 | 31.5 (≈ 143 µM)
Cc1ccc(-c2noc(-c3ccno3)n2)cc1 | 2.4 (≈ 10.6 µM)
Cc1ccc(S(=O)(=O)CC(=O)c2ccc([N+](=O)[O-])cc2)cc1 | 9.1 (≈ 28.5 µM)
O=C(/C=C/c1cccs1)NCc1ccc2c(c1)OCO2 | 6.3 (≈ 21.9 µM)
Nc1c(C(=O)N2CCCC2)sc2nc3c(cc12)CCCCCC3 | 3.2 (≈ 9.71 µM)
C[C@@H](C(=O)Nc1ccc(OC(F)F)c(Cl)c1)N1C(=O)C2CC=CCC2C1=O (some centres not stated) | > 59.8
COc1ccc(CN2CCOCCOCCOCCOCC2)cc1 | > 50.9
COc1ccc(NC(=S)N2CCCC2)c(OC)c1 | > 40
NC(=O)c1ccc(=O)n(Cc2ccc(F)c(F)c2)c1 | > 39.6
CCOC(=O)c1c(NC(=O)C2CC2)sc2c1CC(C)(C)OC2 | < 0.7
O=C(COC(=O)c1cccc(O)c1)Nc1ccc(OC(F)F)cc1 | 46.2 (≈ 137 µM)
OC(C#CCN1CCCCCC1)(c1ccccc1)c1cccnc1 (configuration not stated) | > 48.1
O=C(NCC1CCCO1)C1CCCN1C(=O)Nc1ccc(Cl)cc1 (configuration not stated) | > 52.8
Cc1ccc(C)c(NC(=O)C2CCCN(c3cnccn3)C2)c1 (configuration not stated) | 1.7 (≈ 5.48 µM)
Cc1noc(C)c1COC(=O)c1csc2c1CCC(C)C2 (configuration not stated) | 1.4 (≈ 4.58 µM)
Cc1nnc(SCC(=O)Nc2ccc(OC(F)F)c(Cl)c2)n(N)c1=O | > 58.8

Now from value to compound:

solubility kinetic [µg/mL] | Compound
> 47.8 | O=C(Cn1c(NCCO)nc2ccccc21)NCC1CCCO1 (configuration not stated)
3.7 | CCN(CC)CCN(C(=O)c1cc2ccccc2cc1OC)c1nc2ccc(OC)cc2s1.Cl
41.9 (≈ 148 µM) | CCn1c(COc2ccccc2OC)nc2ccccc21
7 (≈ 23.2 µM) | Cn1c(SCc2ccccc2)nc2c1c(=O)[nH]c(=O)n2C
11.9 (≈ 36.8 µM) | CCOC(=O)C1CCCN(Cc2ccc(-c3ccccc3)cc2)C1 (configuration not stated)
2.8 (≈ 8.69 µM) | CC1=C(C(=O)OCc2ccccc2)C(c2ccccc2)NC(=O)N1 (configuration not stated)
12.3 (≈ 37.8 µM) | O=S(=O)(Nc1ccccc1O)c1ccc(-c2ccccc2)cc1
17.7 (≈ 56.8 µM) | CSc1ccc(CN2CCC(Cc3ccccc3)CC2)cc1
> 36.2 | CC(=O)Nc1ccc2nc(-c3ccco3)[nH]c2c1
6.9 (≈ 25.8 µM) | Nc1cc(=O)[nH]c(SCc2ccccc2Cl)n1
35.6 (≈ 147 µM) | O=C(Nc1ccccn1)C(=O)Nc1ccccn1
39.5 (≈ 139 µM) | Cc1nc(N2CCN(c3ccccc3)CC2)[nH]c(=O)c1C
> 45.5 | Cc1cccc(NC(=O)CCS(=O)(=O)c2ccccc2)c1
> 47.1 | O=C(CCC(=O)Nc1ccc(F)cc1)N/N=C/c1cccnc1
10.4 | Cc1cc(C)nc(Nc2ccccc2Cl)n1.Cl
32.8 (≈ 102 µM) | CCn1cc(CCC(=O)NCCc2ccccc2)c2ccccc21
2.4 (≈ 8.65 µM) | CCc1ccc(NC2=CC(=O)C(=O)c3ccccc32)cc1

solubility kinetic [µg/mL] | Compound
< 0.3 | CCc1ccc(N2C(=O)CN(Cc3cccs3)C2=S)cc1
< 0.2 | Cc1nc(N(C)C)c2sc(=S)n(Cc3ccccc3)c2n1
> 65.9 | COc1ccc(CCN2CC(C(=O)NCC(c3ccccc3)N(C)C)CC2=O)cc1OC (configuration not stated)
< 0.7 | COc1ccc(C(=O)OCC(=O)Nc2c(C)cccc2C)cc1
> 38.7 | COc1cccc(Nc2ccc(C(=O)O)cc2N)c1
> 45.4 | O=C1CCc2cc(S(=O)(=O)Nc3ccccc3)ccc2N1
3.2 (≈ 10.9 µM) | Cc1ccc(CC(=O)NC2CCCc3ccccc32)cc1C (configuration not stated)
44.5 (≈ 150 µM) | CCC(=O)Nc1ccc(NC(=O)CCc2ccccc2)cn1
8.5 (≈ 35.7 µM) | c1ccc(-c2csc(-c3cccnc3)n2)cc1
40 (≈ 131 µM) | COC(=O)c1sccc1NC(=O)Nc1ccc(OC)cc1
< 0.7 | O=C(NCCc1cccc(Cl)c1)c1cc2ccccc2oc1=O
> 39.8 | COc1ccc(Nc2ncnc3ccc(C)cc23)cc1
> 67.9 | O=C(COC(=O)c1cc(S(=O)(=O)N2CCOCC2)ccc1Cl)NCc1ccccc1
8 (≈ 26.6 µM) | Cc1nc2ccc(NC(=O)Cc3ccccc3F)cc2s1
9.4 (≈ 27.5 µM) | N#C/C(=C\c1ccc(OCC(N)=O)cc1)S(=O)(=O)c1ccccc1
31.8 (≈ 145 µM) | CSc1nc(N(C)C)c2ccccc2n1
